Test results published in the NIST ThermoML archive (doi:10.1021/je7003512).
Numbers after ± are expanded uncertainties.

Experiments:
[1] = refractive index (Na D-line) (dimensionless); details: 298.15 K; 101.33 kPa; Liquid; Standard Abbe refractometry
[2] = 298.15 K; 101.33 kPa; Liquid
[3] = refractive index (Na D-line) (dimensionless); xn = mol fraction of the nth substance listed; details: 298.15 K, 101 kPa, Liquid, Standard Abbe refractometry

CC(C)CC(C)(C)C [2,2,4-trimethylpentane]
refractive index [1]: 1.39267 ± 0.00078
mass density [2]: 688.18 ± 1.3 kg/m3

CC(C)CC(C)(C)C [2,2,4-trimethylpentane] + C=COCCC
refractive index ([3]; x2 = 0): 1.39267 ± 0.00078

CC(C)CC(C)(C)C [2,2,4-trimethylpentane] + CCO
refractive index ([3]; x2 = 0): 1.39267 ± 0.00078
refractive index ([3]; x2 = 0.052): 1.39087 ± 0.00078
refractive index ([3]; x2 = 0.1002): 1.38995 ± 0.00078
refractive index ([3]; x2 = 0.199): 1.38855 ± 0.00078
refractive index ([3]; x2 = 0.2992): 1.38682 ± 0.00078
refractive index ([3]; x2 = 0.3991): 1.38458 ± 0.00078
refractive index ([3]; x2 = 0.5005): 1.38228 ± 0.00078
refractive index ([3]; x2 = 0.6006): 1.37947 ± 0.00078
refractive index ([3]; x2 = 0.7002): 1.37613 ± 0.00078
refractive index ([3]; x2 = 0.8006): 1.37214 ± 0.00078
refractive index ([3]; x2 = 0.8998): 1.36728 ± 0.00078
refractive index ([3]; x2 = 0.9503): 1.36436 ± 0.00078

CCO [ethanol]
refractive index [1]: 1.36161 ± 0.00078
mass density [2]: 785.32 ± 1.2 kg/m3

CCO [ethanol] + C=COCCC
refractive index ([3]; x2 = 0): 1.36161 ± 0.00078

CCO [ethanol] + CC(C)CC(C)(C)C
refractive index ([3]; x1 = 1): 1.36161 ± 0.00078

CO [methanol]
refractive index [1]: 1.3267 ± 0.00082
mass density [2]: 786.54 ± 1.2 kg/m3

C=COCCC [propyl vinyl ether]
refractive index [1]: 1.39094 ± 0.00078
mass density [2]: 762.98 ± 1.2 kg/m3

C=COCCC [propyl vinyl ether] + CC(C)CC(C)(C)C
refractive index ([3]; x1 = 0.0503): 1.39117 ± 0.00078
refractive index ([3]; x1 = 0.1011): 1.39096 ± 0.00078
refractive index ([3]; x1 = 0.2002): 1.39064 ± 0.00078
refractive index ([3]; x1 = 0.3002): 1.39044 ± 0.00078
refractive index ([3]; x1 = 0.3995): 1.39004 ± 0.00078
refractive index ([3]; x1 = 0.4998): 1.38988 ± 0.00078
refractive index ([3]; x1 = 0.6003): 1.38967 ± 0.00078
refractive index ([3]; x1 = 0.7004): 1.38964 ± 0.00078
refractive index ([3]; x1 = 0.7998): 1.38978 ± 0.00078
refractive index ([3]; x1 = 0.9002): 1.39013 ± 0.00078
refractive index ([3]; x1 = 0.9503): 1.39035 ± 0.00078
refractive index ([3]; x1 = 1): 1.39094 ± 0.00078

C=COCCC [propyl vinyl ether] + CCO
refractive index ([3]; x1 = 0.0499): 1.36372 ± 0.00078
refractive index ([3]; x1 = 0.1): 1.3655 ± 0.00078
refractive index ([3]; x1 = 0.2002): 1.36949 ± 0.00078
refractive index ([3]; x1 = 0.2996): 1.37356 ± 0.00078
refractive index ([3]; x1 = 0.4004): 1.37689 ± 0.00078
refractive index ([3]; x1 = 0.5006): 1.38018 ± 0.00079
refractive index ([3]; x1 = 0.6005): 1.38262 ± 0.00078
refractive index ([3]; x1 = 0.7005): 1.38517 ± 0.00078
refractive index ([3]; x1 = 0.8002): 1.38724 ± 0.00078
refractive index ([3]; x1 = 0.8997): 1.38925 ± 0.00078
refractive index ([3]; x1 = 0.9492): 1.3901 ± 0.00078
refractive index ([3]; x1 = 1): 1.39094 ± 0.00078
